# Measurements: PubChem BioAssay AID1259407 (Chemical Carcinogenesis Research Information System (CCRIS), 2018)
# Active and inactive are the calls of the source. No rule for the calls is given here.
# Test system: CCRIS mutagenicity, Ames/micronucleus/aberration tests
# Test: CCRIS mutagenicity studies
# [1] = Test System: AMES SALMONELLA TYPHIMURIUM, Strain/Indicator: TA98, Metabolic Activation: NONE, Method: STANDARD PLATE
# [2] = Test System: AMES SALMONELLA TYPHIMURIUM, Strain/Indicator: TA100, Metabolic Activation: NONE, Method: STANDARD PLATE
# [3] = Test System: AMES SALMONELLA TYPHIMURIUM, Strain/Indicator: TA100, Metabolic Activation: RAT, LIVER, S-9, AROCLOR 1254, Method: STANDARD PLATE
# [4] = Test System: AMES SALMONELLA TYPHIMURIUM, Strain/Indicator: TA102, Metabolic Activation: NONE, Method: STANDARD PLATE
# [5] = Test System: AMES SALMONELLA TYPHIMURIUM, Strain/Indicator: TA1535, Metabolic Activation: NONE, Method: STANDARD PLATE
# [6] = Test System: AMES SALMONELLA TYPHIMURIUM, Strain/Indicator: TA1535, Metabolic Activation: RAT, LIVER, S-9, AROCLOR 1254, Method: STANDARD PLATE
# [7] = Test System: AMES SALMONELLA TYPHIMURIUM, Strain/Indicator: TA1537, Metabolic Activation: NONE, Method: STANDARD PLATE
# [8] = Test System: AMES SALMONELLA TYPHIMURIUM, Strain/Indicator: TA1538, Metabolic Activation: NONE, Method: STANDARD PLATE
# [9] = Test System: AMES SALMONELLA TYPHIMURIUM, Strain/Indicator: TA1538, Metabolic Activation: RAT, LIVER, S-9, AROCLOR 1254, Method: STANDARD PLATE
# [10] = Test System: AMES SALMONELLA TYPHIMURIUM, Strain/Indicator: TA98, Metabolic Activation: RAT, LIVER, S-9, Method: STANDARD PLATE
# [11] = Test System: AMES SALMONELLA TYPHIMURIUM, Strain/Indicator: TA100, Metabolic Activation: RAT, LIVER, S-9, Method: STANDARD PLATE
compound,measurement,setting,value
O=C1c2cccc(O)c2C(=O)c2c(O)cc(CO)cc21,mutagenic call,"Test System: AMES SALMONELLA TYPHIMURIUM, Strain/Indicator: TA97A, Metabolic Activation: NONE, Method: STANDARD PLATE",active; positive
same,mutagenic call,"Test System: AMES SALMONELLA TYPHIMURIUM, Strain/Indicator: TA97A, Metabolic Activation: RAT, LIVER, S-9, AROCLOR 1254, Method: STANDARD PLATE",active; positive
same,mutagenic call,[1],active; positive
same,mutagenic call,"Test System: AMES SALMONELLA TYPHIMURIUM, Strain/Indicator: TA98, Metabolic Activation: RAT, LIVER, S-9, PCB, Method: PREINCUBATION",inactive; negative
same,mutagenic call,"Test System: AMES SALMONELLA TYPHIMURIUM, Strain/Indicator: TA98, Metabolic Activation: RAT, LIVER, S-9, Method: PREINCUBATION",active; positive
same,mutagenic call,"Test System: AMES SALMONELLA TYPHIMURIUM, Strain/Indicator: TA100, Metabolic Activation: NONE, Method: PREINCUBATION",inactive; negative
same,mutagenic call,[2],inactive; negative
same,mutagenic call,[3],inactive; negative
same,mutagenic call,"Test System: AMES SALMONELLA TYPHIMURIUM, Strain/Indicator: TA100, Metabolic Activation: RAT, LIVER, S-9, PCB, Method: PREINCUBATION",active; positive
same,mutagenic call,[4],inactive; negative
same,mutagenic call,"Test System: AMES SALMONELLA TYPHIMURIUM, Strain/Indicator: TA102, Metabolic Activation: RAT, LIVER, S-9, AROCLOR 1254, Method: STANDARD PLATE",active; positive
same,mutagenic call,"Test System: AMES SALMONELLA TYPHIMURIUM, Strain/Indicator: TA102, Metabolic Activation: RAT, LIVER, S-9, Method: PREINCUBATION",active; positive
same,mutagenic call,[5],inactive; negative
same,mutagenic call,[6],inactive; negative
same,mutagenic call,"Test System: AMES SALMONELLA TYPHIMURIUM, Strain/Indicator: TA1537, Metabolic Activation: NONE, Method: PREINCUBATION",active; positive
same,mutagenic call,[7],active; positive
same,mutagenic call,"Test System: AMES SALMONELLA TYPHIMURIUM, Strain/Indicator: TA1537, Metabolic Activation: RAT, LIVER, S-9, Method: PREINCUBATION",active; positive
same,mutagenic call,"Test System: AMES SALMONELLA TYPHIMURIUM, Strain/Indicator: TA1538, Metabolic Activation: NONE, Method: PREINCUBATION",active; positive
same,mutagenic call,[8],active; positive
same,mutagenic call,[9],active; positive
same,mutagenic call,"Test System: AMES SALMONELLA TYPHIMURIUM, Strain/Indicator: TA1538, Metabolic Activation: RAT, LIVER, S-9, Method: PREINCUBATION",active; positive
same,mutagenic call,"Test System: AMES SALMONELLA TYPHIMURIUM, Strain/Indicator: TA1978, Metabolic Activation: NONE, Method: PREINCUBATION",active; positive
same,mutagenic call,"Test System: AMES SALMONELLA TYPHIMURIUM, Strain/Indicator: TA1978, Metabolic Activation: RAT, LIVER, S-9, Method: PREINCUBATION",inactive; negative
same,mutagenic call,"Test System: CHINESE HAMSTER V-79, Strain/Indicator: V-79 (HGPRT)/6-THIOGUANINE, Metabolic Activation: NONE",inactive; negative
same,mutagenic call,"Test System: CHINESE HAMSTER V-79, Strain/Indicator: V-79 (HPRT)/6-THIOGUANINE, Metabolic Activation: NONE",inactive; negative
same,mutagenic call,"Test System: CHINESE HAMSTER V-79, Strain/Indicator: V-79 (HPRT)/6-THIOGUANINE, Metabolic Activation: RAT, LIVER, S-9, AROCLOR 1254",inactive; negative
same,mutagenic call,"Test System: CHINESE HAMSTER V-79, Strain/Indicator: V-79/8-AZAGUANINE, Metabolic Activation: NONE, Method: STANDARD PLATE",active; positive
same,mutagenic call,"Test System: UDS RAT HEPATOCYTES, Strain/Indicator: THY INCORP, Metabolic Activation: NONE, Method: AUTORADIOGRAPHY",inactive; negative
same,mutagenic call,"Test System: UDS RAT HEPATOCYTES, Strain/Indicator: THY INCORP, Metabolic Activation: NONE, Method: IN VIVO-IN VITRO",inactive; negative
same,mutagenic call,"Test System: UDS RODENT HEPATOCYTES, Strain/Indicator: THY INCORP (NON-S-PHASE), Metabolic Activation: NONE, Method: AUTORADIOGRAPHY",active; positive
C/C=C/C=C/CCCCCCCOC(C)=O,mutagenic call,[1],inactive; negative
same,mutagenic call,[10],inactive; negative
same,mutagenic call,[2],inactive; negative
same,mutagenic call,[11],inactive; negative
same,mutagenic call,[4],inactive; negative
same,mutagenic call,"Test System: AMES SALMONELLA TYPHIMURIUM, Strain/Indicator: TA102, Metabolic Activation: RAT, LIVER, S-9, Method: STANDARD PLATE",inactive; negative
c1ccc2cc3cc4ccccc4cc3cc2c1,mutagenic call,[1],inactive; negative
same,mutagenic call,"Test System: AMES SALMONELLA TYPHIMURIUM, Strain/Indicator: TA98, Metabolic Activation: RAT, LIVER, S-9, 3-METHYLCHOLANTHRENE, Method: STANDARD PLATE",active; positive
same,mutagenic call,"Test System: AMES SALMONELLA TYPHIMURIUM, Strain/Indicator: TA98, Metabolic Activation: RAT, LIVER, S-9, AROCLOR 1254, Method: STANDARD PLATE",active; positive
same,mutagenic call,"Test System: AMES SALMONELLA TYPHIMURIUM, Strain/Indicator: TA100, Metabolic Activation: MOUSE, LIVER, S-9, 2,3,7,8-TETRACHLORODIBENZO-P-DIOXIN, Method: STANDARD PLATE",active; positive
same,mutagenic call,"Test System: AMES SALMONELLA TYPHIMURIUM, Strain/Indicator: TA100, Metabolic Activation: MOUSE, LIVER, S-9, 3-METHYLCHOLANTHRENE, Method: STANDARD PLATE",active; positive
same,mutagenic call,[2],inactive; negative
same,mutagenic call,"Test System: AMES SALMONELLA TYPHIMURIUM, Strain/Indicator: TA100, Metabolic Activation: RAT, LIVER, S-9, 3-METHYLCHOLANTHRENE, Method: STANDARD PLATE",active; positive
same,mutagenic call,[3],active; positive
same,mutagenic call,[5],inactive; negative
same,mutagenic call,"Test System: AMES SALMONELLA TYPHIMURIUM, Strain/Indicator: TA1535, Metabolic Activation: RAT, LIVER, S-9, 3-METHYLCHOLANTHRENE, Method: STANDARD PLATE",inactive; negative
same,mutagenic call,[6],inactive; negative
same,mutagenic call,[7],inactive; negative
same,mutagenic call,"Test System: AMES SALMONELLA TYPHIMURIUM, Strain/Indicator: TA1537, Metabolic Activation: RAT, LIVER, S-9, 3-METHYLCHOLANTHRENE, Method: STANDARD PLATE",active; positive
same,mutagenic call,"Test System: AMES SALMONELLA TYPHIMURIUM, Strain/Indicator: TA1537, Metabolic Activation: RAT, LIVER, S-9, AROCLOR 1254, Method: STANDARD PLATE",active; positive
same,mutagenic call,[8],inactive; negative
same,mutagenic call,"Test System: AMES SALMONELLA TYPHIMURIUM, Strain/Indicator: TA1538, Metabolic Activation: RAT, LIVER, S-9, 3-METHYLCHOLANTHRENE, Method: STANDARD PLATE",active; positive
same,mutagenic call,[9],active; positive
C/C=C(/C(=C/C)c1ccc(O)cc1)c1ccc(O)cc1,mutagenic call,"End Point: IN VITRO CHROMOSOMAL ABERRATIONS, Test System: CHINESE HAMSTER CELL DON (22;XY), Metabolic Activation: NONE",active; positive (ploidy changes)
same,mutagenic call,[1],inactive; negative
same,mutagenic call,[10],inactive; negative
same,mutagenic call,[2],inactive; negative; toxicity at 100 ug/plate
same,mutagenic call,[11],inactive; negative; toxicity at 100 ug/plate
same,mutagenic call,[5],inactive; negative; toxicity at 50 ug/plate
same,mutagenic call,"Test System: AMES SALMONELLA TYPHIMURIUM, Strain/Indicator: TA1535, Metabolic Activation: RAT, LIVER, S-9, Method: STANDARD PLATE",inactive; negative; toxicity at 100 ug/plate
same,mutagenic call,[7],inactive; negative
same,mutagenic call,"Test System: AMES SALMONELLA TYPHIMURIUM, Strain/Indicator: TA1537, Metabolic Activation: RAT, LIVER, S-9, Method: STANDARD PLATE",inactive; negative
same,mutagenic call,[8],inactive; negative
same,mutagenic call,"Test System: AMES SALMONELLA TYPHIMURIUM, Strain/Indicator: TA1538, Metabolic Activation: RAT, LIVER, S-9, Method: STANDARD PLATE",inactive; negative; toxicity at 100 ug/plate
